Experimental data reported in ChEMBL document CHEMBL5579794, “Improved synthesis and evaluation of preclinical pharmacodynamic parameters of a new monocyclic β-lactam DPI-2016” (Bioorg Med Chem Lett, 2024).

Tests used:
[1] = Stability in rat plasma at 1 uM measured upto 120 mins by LC-MS/MS analysis; type: ADME, cell-free; conditions: 2 h
[2] = Stability in monkey plasma at 1 uM measured upto 120 mins by LC-MS/MS analysis; type: ADME, cell-free, Macaca mulatta; conditions: rhesus monkey, 2 h
[3] = Stability in human plasma at 1 uM measured upto 120 mins by LC-MS/MS analysis; type: ADME, cell-free; conditions: 2 h
[4] = Stability in mouse plasma at 1 uM measured upto 120 mins by LC-MS/MS analysis; type: ADME, cell-free; conditions: 2 h
[5] = Stability in dog plasma at 1 uM measured upto 120 mins by LC-MS/MS analysis; type: ADME, cell-free, Canis lupus familiaris; conditions: 2 h
[6] = Stability in dog liver microsomes at 0.2 mg/ml measured up to 60 mins in presence of NADPH by LC-MS/MS analysis; type: ADME, Canis lupus familiaris, Microsome; conditions: 1 h
[7] = Stability in rat liver microsomes at 0.2 mg/ml measured up to 60 mins in presence of NADPH by LC-MS/MS analysis; type: ADME, Microsome; conditions: 1 h
[8] = Stability in monkey liver microsomes at 0.2 mg/ml measured up to 60 mins in presence of NADPH by LC-MS/MS analysis; type: ADME, Macaca mulatta, Microsome; conditions: rhesus monkey, 1 h
[9] = Stability in human liver microsomes at 0.2 mg/ml measured up to 60 mins in presence of NADPH by LC-MS/MS analysis; type: ADME, Microsome; conditions: 1 h
[10] = Stability in mouse liver microsomes at 0.2 mg/ml measured up to 60 mins in presence of NADPH by LC-MS/MS analysis; type: ADME, Microsome; conditions: 1 h
[11] = Plasma protein binding in rat at 1 uM incubated for 6 hrs by LC-MS/MS analysis; type: ADME, cell-free; conditions: read-out: PPB (converted)
[12] = Plasma protein binding in human at 1 uM incubated for 6 hrs by LC-MS/MS analysis; type: ADME, cell-free; conditions: read-out: PPB (converted)

**Q.** Which Stability [1] does the source give for `CC(C)[N+](C)(CCOC(=O)C1c2ccccc2Oc2ccccc21)C(C)C` [PROPANTHELINE] here?
**A.** Unstable

**Q.** What about the Stability [2] of the same compound?
**A.** Unstable

**Q.** What about the Stability [3] of the same compound?
**A.** Unstable

**Q.** What about the Stability [4] of the same compound?
**A.** Unstable

**Q.** And the Stability [5]?
**A.** Unstable

**Q.** With `Cc1ncc2n1-c1ccc(Cl)cc1C(c1ccccc1F)=NC2` [MIDAZOLAM] as the compound, how does the Stability [6] read?
**A.** Unstable

**Q.** And the Stability [7]?
**A.** Unstable

**Q.** And the Stability [8]?
**A.** Unstable

**Q.** What about the Stability [9] of the same compound?
**A.** Unstable

**Q.** And the Stability [10]?
**A.** Unstable

**Q.** Which fraction unbound at 6 h, 1 µM [11] does the source give for `CC(=O)Nc1ccc(O)cc1` [ACETAMINOPHEN] here?
**A.** 0.526

**Q.** What about the fraction unbound at 6 h, 1 µM [12] of the same compound?
**A.** 0.741
